PMC10819765, “The biochemically defined super relaxed state of myosin—A paradox” (The Journal of Biological Chemistry, 2023)

Biological target: T1, porcine cardiac ventricle myosin (pc-HMM; beta-cardiac myosin heavy chain) (Sus scrofa, UniProt P79293)
T1 construct: gene MYH7; chymotryptic heavy meromyosin (pc-HMM); also S1 (pc-S1); with myosin light chains (RLC, essential light chain)
Experiment: stopped-flow FRET (Trp to mant) displacement and multiple-turnover assay; kcat […] s^-1
Assay type: biochemical

T1 sequence (P79293 whole entry): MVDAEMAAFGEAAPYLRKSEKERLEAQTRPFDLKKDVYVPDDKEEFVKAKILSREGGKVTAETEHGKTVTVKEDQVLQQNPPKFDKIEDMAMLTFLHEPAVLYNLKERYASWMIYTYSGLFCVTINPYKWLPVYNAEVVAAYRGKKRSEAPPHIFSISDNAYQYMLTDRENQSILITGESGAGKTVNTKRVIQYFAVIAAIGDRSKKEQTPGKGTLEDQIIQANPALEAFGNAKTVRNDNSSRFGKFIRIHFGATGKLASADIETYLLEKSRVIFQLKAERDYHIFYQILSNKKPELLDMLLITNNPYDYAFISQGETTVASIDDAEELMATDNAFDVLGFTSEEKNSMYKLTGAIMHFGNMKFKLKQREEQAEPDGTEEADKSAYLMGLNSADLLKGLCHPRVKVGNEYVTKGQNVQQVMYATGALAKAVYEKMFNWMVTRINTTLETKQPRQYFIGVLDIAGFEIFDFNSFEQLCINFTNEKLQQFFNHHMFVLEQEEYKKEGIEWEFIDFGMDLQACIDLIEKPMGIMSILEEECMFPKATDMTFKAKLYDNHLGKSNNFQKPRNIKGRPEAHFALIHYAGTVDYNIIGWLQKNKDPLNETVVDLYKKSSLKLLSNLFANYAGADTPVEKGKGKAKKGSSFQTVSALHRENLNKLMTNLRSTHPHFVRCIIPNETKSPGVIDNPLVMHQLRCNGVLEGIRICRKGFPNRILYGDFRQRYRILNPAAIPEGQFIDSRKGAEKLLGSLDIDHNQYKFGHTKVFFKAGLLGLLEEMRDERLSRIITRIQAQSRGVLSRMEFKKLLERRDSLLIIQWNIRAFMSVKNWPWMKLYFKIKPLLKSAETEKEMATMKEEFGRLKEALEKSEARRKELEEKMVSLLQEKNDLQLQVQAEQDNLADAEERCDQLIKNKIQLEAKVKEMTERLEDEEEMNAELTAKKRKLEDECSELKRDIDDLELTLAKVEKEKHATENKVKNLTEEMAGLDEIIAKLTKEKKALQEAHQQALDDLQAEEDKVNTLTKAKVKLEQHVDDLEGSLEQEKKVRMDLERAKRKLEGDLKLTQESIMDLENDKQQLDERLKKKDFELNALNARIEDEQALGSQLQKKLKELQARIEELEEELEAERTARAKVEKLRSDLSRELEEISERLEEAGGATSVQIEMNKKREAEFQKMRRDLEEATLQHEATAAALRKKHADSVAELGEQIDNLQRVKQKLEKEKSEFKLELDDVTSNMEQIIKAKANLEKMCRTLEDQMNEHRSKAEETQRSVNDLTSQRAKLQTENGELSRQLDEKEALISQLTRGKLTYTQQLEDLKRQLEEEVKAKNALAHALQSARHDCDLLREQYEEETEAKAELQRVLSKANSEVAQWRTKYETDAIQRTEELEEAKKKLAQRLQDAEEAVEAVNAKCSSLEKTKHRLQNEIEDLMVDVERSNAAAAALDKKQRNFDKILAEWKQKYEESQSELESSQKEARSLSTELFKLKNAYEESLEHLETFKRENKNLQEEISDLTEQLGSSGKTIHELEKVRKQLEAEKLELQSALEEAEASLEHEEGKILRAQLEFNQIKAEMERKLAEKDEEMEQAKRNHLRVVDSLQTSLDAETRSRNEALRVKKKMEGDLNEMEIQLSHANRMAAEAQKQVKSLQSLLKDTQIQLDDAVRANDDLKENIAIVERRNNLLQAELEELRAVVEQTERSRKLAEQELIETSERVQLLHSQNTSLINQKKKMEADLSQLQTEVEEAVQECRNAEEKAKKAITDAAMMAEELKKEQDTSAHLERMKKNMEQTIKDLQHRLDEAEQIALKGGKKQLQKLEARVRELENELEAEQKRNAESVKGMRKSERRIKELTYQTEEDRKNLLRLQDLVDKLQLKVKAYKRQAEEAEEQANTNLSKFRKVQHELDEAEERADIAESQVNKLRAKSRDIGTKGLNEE

kcat (s^-1) / Mean: 0.0282 s⁻¹
Compound: CNc1ccccc1C(=O)O[C@H]1C[C@H](n2cnc3c(N)ncnc32)O[C@@H]1COP(=O)(O)OP(=O)(O)OP(=O)(O)O [mant.dATP]
